From patent US8518677B2, “Microbial bioreaction process” (Evolva Sa, priority 2007, dated 2013)

Tests used:
[1] = tested on: S. cerevisiae strain PALCPR; experiment: Growth of evolved PALCPR strains in the presence of extraction solvent (CO2 production); assay type: cell-based; settings: PALCPR-evolved-III from glycerol stock; 100 ml solvent from start, 800 rpm
Description: The cells of the PALCPR-solvent culture described in the previous example were taken as starting point because the presence of the solvent mixture would possibly have already evoked adaptation of cells to solvents. For that, cells of the culture described in the previous example were harvested during mid-exponential-phase and stored at −80° C. in 15% glycerol and subsequently a fermentor, containing the same medium as described in the previous example with 10 g/l glucose and 100 g/l galactose, was then inoculated with cells of said PALCPR-solvent culture. The cells were allowed to fully consume the glucose at a stirring speed of 1000 rpm with an average dissolved oxygen content of above 70% of saturated air. At the onset of galactose consumption, the stirring rate was turned down to 300 rpm, after which slowly 100 ml of octylacetate was added.
Galactose consumption indeed commenced again. A small arrest in CO2 production again occurred after 20 hours which, however, recovered after 5 hours, after which the cells grew exponentially with concomitant production of CO2, consumption of galactose within less than 40 hours. Based upon the CO2 production the specific growth rate was estimated to be 0.062 1/h (FIG. 2). The final biomass concentration was 21.6 g/l.
In order to further improve said strain in terms of length of lag-phase and growth rate, a 25 ml aliquot of the exponentional growing PALCPR-evolved-I strain was used to inoculate a fermentor, containing a similar medium as described in the previous example. However, the medium now only contained 100 g/l galactose and did contain 100 ml of octylacetate from the beginning of the fermentation. In addition, the stirrer speed was instantly set at 800 rpm. Upon inoculation of the fermentor, consumption of galactose only commenced after approximately 40 hours, indicated by a slow increase in CO2 signal, a decrease in dissolved oxygen and addition of base. Indeed the cells continued to grow exponentially with concomitant production of CO2, and consumed the galactose within less than 90 hours. Based upon the CO2 production the specific growth rate was estimated to be 0.041 1/h (FIG. 3). The final biomass concentration was 21.5 g/l. The strain is referred to as PALCPR-evolved-II.
Therefore, to further improve said strain in terms of both length of lag-phase and growth rate, a 50 ml aliquot of the exponentional growing PALCPR-evolved-II strain was used to inoculate a fermentor, containing a similar medium as described in the previous example (thus containing 100 g/l galactose 100 ml of octylacetate from the beginning of the fermentation). The stirrer speed was instantly set at 800 rpm. Upon inoculation of the fermentor, consumption of galactose already commenced after less then 20 hours, indicated by a slow increase in CO2 signal, a decrease in dissolved oxygen and addition of base. Indeed the cells further grew exponentially with concomitant production of CO2, and now consumed the galactose within approximately 50 hours. Based upon the CO2 production the specific growth rate was estimated to be 0.091 1/h (FIG. 4). The final biomass concentration was 18.9 g/l. The strain is referred to as PALCPR-evolved-III.
The evolved PALCPR-evolved-III strain described in the previous example was grown in the presence of nonyl-acetate, a similar solvent as octylacetate with one additional carbon atom. A 1 ml aliquot of a glycerol stock that was made from an exponentional growing PALCPR-evolved-III strain was used to inoculate a fermentor, containing a similar medium as described in the previous example, containing only 100 g/l galactose and 100 ml of nonyl-acetate from the beginning of the fermentation. The stirrer speed was instantly set at 800 rpm. Upon inoculation of the fermentor, consumption of galactose only commenced after approximately 70 hours, indicated by a slow increase in CO2 signal, a decrease in dissolved oxygen and addition of base. […]

[2] = tested on: S. cerevisiae strain FS09229; experiment: Growth of non-evolved strain FS09229 in the presence of extraction solvent (CO2 production); assay type: cell-based; settings: 100 ml solvent from start, 800 rpm
Description: The non-evolved FS09229 strain described in previous examples was grown in the presence of nonyl-acetate. A 1 ml aliquot of a glycerol stock that was made from an exponentional growing FS09229 strain was used to inoculate a fermentor, containing a similar medium as described in the previous example, but now containing 100 g/l glucose and 100 ml of nonyl-acetate from the beginning of the fermentation. The stirrer speed was instantly set at 800 rpm. Upon inoculation of the fermentor, a long lag-phase of approximately 70 hrs set-in, during which an apparent adaptation to the solvent took place. Consumption of glucose only then commenced, indicated by a slow increase in CO2 signal, a decrease in dissolved oxygen and addition of base. Indeed the cells continued to grow exponentially with concomitant production of CO2, and consumed the glucose within less than 25 hours. […] The final biomass concentration was 15.5 g/l. The cultivation will be referred to as FS09229-solvent. As a control-experiment said strain was grown in the similar medium without the addition of nonyl-acetate. Upon inoculation of the fermentor, consumption of glucose commenced already after approximately 10 hours, indicated by an increase in CO2 signal, a decrease in dissolved oxygen and addition of base. […]

[3] = partition coefficient between water and octanol; cited from earlier work

## CCCCCCCCCOC(C)=O [nonyl-acetate]
[1]
  lag-phase until galactose consumption commenced: approximately 70 hours
  specific growth rate: 0.098 h⁻¹
[2]
  lag-phase: approximately 70 hrs
[2]; 100 g/l glucose
  specific growth rate: 0.176 h⁻¹
[3]
  logP: 4.2
